For assay [1], the target named is T1, human α1H T-type channels (Homo sapiens, UniProt O95180).
T1 construct: expressed in transfected cells; host or cells: HEK 293
The experiment in a line: T-type calcium channel block, whole cell patch clamp in HEK cells (α1H). The note with it: HEK cells, patch clamp, mainly non-inactivated protocol; values above 10 μM shown as 10 μM; read-out: T-type Calcium Channel Block α1H IC50. The class given is cell-based. In general terms: In patch-clamp work, channel activity is measured electrically.

In assay [2] the target is T2, human α1G T-type channels (Homo sapiens, UniProt O43497).
T2 construct: expressed in transfected cells; host or cells: HEK 293
The experiment in a line: T-type calcium channel block, whole cell patch clamp in HEK cells (α1G). The format is cell-based. The note with it: HEK cells, patch clamp, mainly non-inactivated protocol; values above 10 μM shown as 10 μM, below 0.30 μM shown as 0.30 μM; read-out: T-type Calcium Channel Block α1G IC50.

The structures appear in SMILES notation. Where only a bound is given, the exact number is not on record here.

T1 sequence (O95180 whole entry): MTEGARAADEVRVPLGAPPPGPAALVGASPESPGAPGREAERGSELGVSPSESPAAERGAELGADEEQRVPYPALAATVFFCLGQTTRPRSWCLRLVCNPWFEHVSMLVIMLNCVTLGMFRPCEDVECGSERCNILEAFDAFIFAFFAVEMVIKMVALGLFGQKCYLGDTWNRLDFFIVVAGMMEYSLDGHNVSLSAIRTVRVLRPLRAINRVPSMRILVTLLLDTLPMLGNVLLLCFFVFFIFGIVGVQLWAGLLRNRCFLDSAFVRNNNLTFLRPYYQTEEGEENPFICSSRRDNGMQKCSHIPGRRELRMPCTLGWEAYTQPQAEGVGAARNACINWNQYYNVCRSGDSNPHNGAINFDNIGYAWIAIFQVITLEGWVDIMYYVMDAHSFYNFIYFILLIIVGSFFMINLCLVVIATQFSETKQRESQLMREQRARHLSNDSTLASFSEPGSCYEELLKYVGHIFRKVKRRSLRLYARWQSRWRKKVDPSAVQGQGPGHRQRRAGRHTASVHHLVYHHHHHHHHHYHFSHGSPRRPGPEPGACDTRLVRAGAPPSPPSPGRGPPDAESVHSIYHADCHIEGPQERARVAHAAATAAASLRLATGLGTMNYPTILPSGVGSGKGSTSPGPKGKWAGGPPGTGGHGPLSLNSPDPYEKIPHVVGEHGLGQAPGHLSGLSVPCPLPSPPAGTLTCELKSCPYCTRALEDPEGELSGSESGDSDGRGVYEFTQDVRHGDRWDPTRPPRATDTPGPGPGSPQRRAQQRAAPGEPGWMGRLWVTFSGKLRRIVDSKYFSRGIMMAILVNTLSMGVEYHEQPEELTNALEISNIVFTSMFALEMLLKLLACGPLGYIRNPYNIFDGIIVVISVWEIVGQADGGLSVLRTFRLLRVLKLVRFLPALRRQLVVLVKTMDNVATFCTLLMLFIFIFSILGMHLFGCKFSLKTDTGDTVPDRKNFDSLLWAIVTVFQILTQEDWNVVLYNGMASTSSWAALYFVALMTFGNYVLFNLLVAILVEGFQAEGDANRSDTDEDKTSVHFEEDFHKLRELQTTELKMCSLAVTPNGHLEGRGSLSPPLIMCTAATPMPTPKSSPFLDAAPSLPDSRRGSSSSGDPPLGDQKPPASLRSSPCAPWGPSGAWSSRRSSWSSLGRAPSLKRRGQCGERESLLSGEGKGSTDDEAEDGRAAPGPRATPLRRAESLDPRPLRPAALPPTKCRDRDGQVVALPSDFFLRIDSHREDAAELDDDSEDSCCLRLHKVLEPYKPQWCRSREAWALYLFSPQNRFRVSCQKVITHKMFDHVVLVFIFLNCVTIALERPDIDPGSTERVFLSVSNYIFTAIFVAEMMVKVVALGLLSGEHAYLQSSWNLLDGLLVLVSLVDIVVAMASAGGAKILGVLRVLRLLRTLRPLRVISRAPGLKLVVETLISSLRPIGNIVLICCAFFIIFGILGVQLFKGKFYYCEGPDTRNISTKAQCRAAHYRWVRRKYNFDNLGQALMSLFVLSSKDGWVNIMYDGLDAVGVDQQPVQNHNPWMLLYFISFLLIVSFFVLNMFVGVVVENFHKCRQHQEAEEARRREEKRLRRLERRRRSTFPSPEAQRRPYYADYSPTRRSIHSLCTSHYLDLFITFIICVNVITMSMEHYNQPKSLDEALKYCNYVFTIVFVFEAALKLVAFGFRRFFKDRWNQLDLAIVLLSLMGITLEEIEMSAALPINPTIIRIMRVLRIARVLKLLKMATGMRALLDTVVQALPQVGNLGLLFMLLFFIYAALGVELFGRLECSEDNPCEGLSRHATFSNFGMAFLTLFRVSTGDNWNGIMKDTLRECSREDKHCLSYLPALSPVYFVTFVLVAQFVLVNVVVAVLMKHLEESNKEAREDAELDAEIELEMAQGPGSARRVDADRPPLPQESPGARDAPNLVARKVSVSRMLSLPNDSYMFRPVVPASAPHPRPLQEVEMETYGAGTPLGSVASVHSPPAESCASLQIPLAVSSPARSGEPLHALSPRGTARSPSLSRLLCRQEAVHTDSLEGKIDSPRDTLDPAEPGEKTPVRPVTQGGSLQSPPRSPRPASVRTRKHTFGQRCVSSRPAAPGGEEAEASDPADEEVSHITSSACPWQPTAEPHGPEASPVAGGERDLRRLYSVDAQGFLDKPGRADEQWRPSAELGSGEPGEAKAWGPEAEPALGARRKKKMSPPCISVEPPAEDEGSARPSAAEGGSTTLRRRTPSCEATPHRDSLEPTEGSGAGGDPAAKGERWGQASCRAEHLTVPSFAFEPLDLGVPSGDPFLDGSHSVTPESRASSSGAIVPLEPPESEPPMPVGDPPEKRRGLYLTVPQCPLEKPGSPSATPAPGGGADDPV
T2 sequence (O43497 whole entry): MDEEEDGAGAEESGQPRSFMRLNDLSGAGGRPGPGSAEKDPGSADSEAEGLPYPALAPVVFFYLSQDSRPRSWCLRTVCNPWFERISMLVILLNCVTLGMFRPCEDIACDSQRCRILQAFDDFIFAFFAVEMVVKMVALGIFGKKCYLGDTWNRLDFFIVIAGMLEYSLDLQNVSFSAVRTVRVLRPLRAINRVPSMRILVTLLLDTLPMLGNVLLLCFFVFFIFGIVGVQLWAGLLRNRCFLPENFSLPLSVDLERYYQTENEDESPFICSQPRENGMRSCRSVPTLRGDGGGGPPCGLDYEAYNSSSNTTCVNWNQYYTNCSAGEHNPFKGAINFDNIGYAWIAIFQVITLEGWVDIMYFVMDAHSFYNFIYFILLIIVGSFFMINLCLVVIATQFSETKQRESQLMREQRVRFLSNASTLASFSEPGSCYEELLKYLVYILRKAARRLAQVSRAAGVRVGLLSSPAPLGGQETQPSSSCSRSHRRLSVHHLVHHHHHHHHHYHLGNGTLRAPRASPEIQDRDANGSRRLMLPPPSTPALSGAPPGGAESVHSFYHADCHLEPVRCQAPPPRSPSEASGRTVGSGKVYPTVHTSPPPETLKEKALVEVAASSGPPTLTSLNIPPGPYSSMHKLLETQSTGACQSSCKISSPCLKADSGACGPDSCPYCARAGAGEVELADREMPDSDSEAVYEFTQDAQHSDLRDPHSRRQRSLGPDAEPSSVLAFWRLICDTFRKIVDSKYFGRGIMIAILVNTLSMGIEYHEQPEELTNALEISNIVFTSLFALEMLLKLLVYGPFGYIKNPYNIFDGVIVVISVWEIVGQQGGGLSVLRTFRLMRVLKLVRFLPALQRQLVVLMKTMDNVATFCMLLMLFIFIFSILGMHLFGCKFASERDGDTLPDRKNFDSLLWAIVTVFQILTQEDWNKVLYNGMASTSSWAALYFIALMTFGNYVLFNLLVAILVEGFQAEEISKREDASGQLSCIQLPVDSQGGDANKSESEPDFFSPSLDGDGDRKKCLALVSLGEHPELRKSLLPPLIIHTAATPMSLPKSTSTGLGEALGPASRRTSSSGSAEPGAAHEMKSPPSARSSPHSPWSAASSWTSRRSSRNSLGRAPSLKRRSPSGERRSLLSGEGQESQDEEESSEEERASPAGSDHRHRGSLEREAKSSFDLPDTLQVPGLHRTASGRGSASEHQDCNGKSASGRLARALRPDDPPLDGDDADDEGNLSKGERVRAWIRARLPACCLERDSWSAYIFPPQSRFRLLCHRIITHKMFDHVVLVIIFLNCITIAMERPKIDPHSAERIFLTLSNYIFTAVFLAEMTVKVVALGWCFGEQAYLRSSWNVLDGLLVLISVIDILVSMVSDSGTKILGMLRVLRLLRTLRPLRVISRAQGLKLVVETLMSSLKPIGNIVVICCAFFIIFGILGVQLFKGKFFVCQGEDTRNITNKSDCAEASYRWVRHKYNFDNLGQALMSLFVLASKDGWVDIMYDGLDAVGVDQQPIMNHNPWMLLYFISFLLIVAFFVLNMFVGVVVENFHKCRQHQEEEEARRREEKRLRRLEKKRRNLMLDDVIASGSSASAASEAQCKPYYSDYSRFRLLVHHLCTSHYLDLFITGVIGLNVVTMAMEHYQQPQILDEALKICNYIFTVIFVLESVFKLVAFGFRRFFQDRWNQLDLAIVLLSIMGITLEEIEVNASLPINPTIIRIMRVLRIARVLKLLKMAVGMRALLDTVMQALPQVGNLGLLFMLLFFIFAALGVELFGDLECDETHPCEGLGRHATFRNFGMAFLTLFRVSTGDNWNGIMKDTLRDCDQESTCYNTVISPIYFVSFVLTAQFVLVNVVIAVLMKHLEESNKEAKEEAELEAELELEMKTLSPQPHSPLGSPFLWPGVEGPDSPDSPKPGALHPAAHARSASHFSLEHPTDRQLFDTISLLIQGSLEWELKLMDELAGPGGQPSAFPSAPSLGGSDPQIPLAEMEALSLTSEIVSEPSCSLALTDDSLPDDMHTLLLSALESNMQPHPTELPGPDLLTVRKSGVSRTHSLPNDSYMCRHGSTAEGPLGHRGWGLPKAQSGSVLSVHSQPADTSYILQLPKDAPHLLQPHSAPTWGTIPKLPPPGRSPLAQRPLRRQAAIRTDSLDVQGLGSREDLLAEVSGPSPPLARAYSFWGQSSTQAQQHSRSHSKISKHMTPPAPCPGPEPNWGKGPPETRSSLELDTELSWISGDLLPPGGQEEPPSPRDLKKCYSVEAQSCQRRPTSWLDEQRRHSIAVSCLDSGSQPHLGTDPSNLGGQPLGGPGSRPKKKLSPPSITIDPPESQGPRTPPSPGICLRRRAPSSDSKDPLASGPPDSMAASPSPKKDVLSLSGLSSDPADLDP

A word on the IC50: it is the concentration that gives 50% inhibition. As for `CCCNC(=O)CN1CCC(CNC(=O)c2cc(F)cc(C(F)(F)F)c2)CC1` [Compound 351, 3-fluoro-N-((1-(2-oxo-2-(propylamino)ethyl)piperidin-4-yl)methyl)-5-(trifluoromethyl)benzamide], the results for the IC50 in assay [1] and in assay [2] were 1300 nM and 1720 nM, respectively.

Take `CC1(NC(=O)CN2CCC(CNC(=O)c3cc(F)cc(C(F)(F)F)c3)CC2)CCC1` [Compound 352, 3-fluoro-N-((1-(2-(1-methylcyclo-butylamino)-2-oxoethyl)piperidin-4-yl)methyl)-5-(trifluoromethyl) benzamide]: the IC50 in assay [1] is 80 nM; in assay [2], less than 300 nM.

As for `CCC(C)(C)NC(=O)CN1CCC(CNC(=O)c2cc(F)cc(C(F)(F)F)c2)CC1` [Compound 353, 3-fluoro-N-((1-(2-oxo-2-(tert-pentylamino)ethyl)piperidin-4-yl)methyl)-5-(trifluoromethyl)benzamide], the results for the IC50 in assay [1] and in assay [2] were 60 nM and less than 300 nM, respectively.

Regarding `COCC(COC)NC(=O)CN1CCC(CNC(=O)c2cc(F)cc(C(F)(F)F)c2)CC1` [Compound 354, N-((1-(2-(1,3-dimethoxypropan-2-ylamino)-2-oxoethyl)piperidin-4-yl)methyl)-3-fluoro-5-(trifluoromethyl) benzamide], the IC50 in assay [1] came to 2140 nM; in assay [2], 1840 nM.

As to `O=C(NCC1CCN(CC(=O)N2CC[C@H](C(F)(F)F)C2)CC1)c1cc(F)cc(C(F)(F)F)c1` [Compound 355, (S)-3-fluoro-N-((1-(2-oxo-2-(3-(trifluoromethyl)pyrrolidin-1-yl)ethyl)piperidin-4-yl)methyl)-5-(trifluoromethyl)benzamide], the results for the IC50 in assay [1] and in assay [2] were 160 nM and less than 300 nM, respectively.

`O=C(NCC1CCN(CC(=O)N2CCC(F)CC2)CC1)c1cc(F)cc(C(F)(F)F)c1` [Compound 356, 3-fluoro-N-((1-(2-(4-fluoropiperidin-1-yl)-2-oxoethyl)piperidin-4-yl)methyl)-5-(trifluoromethyl)benzamide]: the IC50 came out at 830 nM in assay [1] and 550 nM in assay [2].

As to `CS(=O)(=O)NC1(CN2CCC(CNC(=O)c3cc(C(F)(F)F)cc(C(F)(F)F)c3)CC2)CC1` [Compound 357, N-((1-((1-(methylsulfonamido)cyclopropyl)methyl)piperidin-4-yl)methyl)-3,5-bis(trifluoromethyl)benzamide], the IC50 in assay [1] came to 1270 nM; in assay [2] it was 2150 nM.

In the case of `CCS(=O)(=O)NC1(CN2CCC(CNC(=O)c3cc(C(F)(F)F)cc(C(F)(F)F)c3)CC2)CC1` [Compound 358, N-((1-((1-(ethylsulfonamido)cyclopropyl)methyl)piperidin-4-yl)methyl)-3,5-bis(trifluoromethyl)benzamide], the IC50 turned out to be 530 nM in assay [1] and 520 nM in assay [2].

For `O=C(NCC1CCN(CC2(NS(=O)(=O)C3CC3)CC2)CC1)c1cc(C(F)(F)F)cc(C(F)(F)F)c1` [Compound 359, N-((1-((1-(cyclopropanesulfonamido)cyclopropyl)methyl)piperidin-4-yl)methyl)-3,5-bis(trifluoromethyl)benzamide], the IC50 in assay [1] is 490 nM; in assay [2] it was 380 nM.

`O=C(NCC1CCN(CC2(NS(=O)(=O)CCC(F)(F)F)CC2)CC1)c1cc(C(F)(F)F)cc(C(F)(F)F)c1` [Compound 360, 3,5-bis(trifluoromethyl)-N-((1-((1-(3,3,3-trifluoropropylsulfonylamido)cyclopropyl)methyl)piperidin-4-yl)methyl)benzamide]: the IC50 in assay [1] was 250 nM; in assay [2], less than 300 nM.

Turning to `CC(C)(C)C(=O)NC1(CN2CCC(CNC(=O)c3cc(C(F)(F)F)cc(C(F)(F)F)c3)CC2)CC1` [Compound 361, N-((1-((1-pivalamidocyclopropyl)methyl)piperidin-4-yl)methyl)-3,5-bis(trifluoromethyl)benzamide], the figures for the IC50 in assay [1] and in assay [2] were 600 nM and 700 nM, respectively.

As for `CC(C)(C)NC(=O)CN1CCC(CNC(=O)/C=C/c2cc(F)cc(F)c2)CC1` [Compound 369, (E)-N-((1-(2-(tert-butylamino)-2-oxoethyl)piperidin-4-yl)methyl)-3-(3,5-difluorophenyl)acrylamide], the figures for the IC50 in assay [1] and in assay [2] were 7010 nM and 6910 nM, respectively.

For `CC(C)(C)NC(=O)CN1CCC(CNC(=O)c2cc(C(F)(F)F)ccn2)CC1` [Compound 372, N-((1-(2-(tert-butylamino)-2-oxoethyl)piperidin-4-yl)methyl)-4-(trifluoromethyl)picolinamide], the 50% inhibitory concentration (IC50) in assay [1] and in assay [2] was more than 10000 nM in each case.

In the case of `CC(C)(C)NC(=O)CN1CCC(CNC(=O)c2ccnc(N3CCCC3)c2)CC1` [Compound 373, N-((1-(2-(tert-butylamino)-2-oxoethyl)piperidin-4-yl)methyl)-2-(pyrrolidin-1-yl)isonicotinamide], the IC50 in assay [1] and in assay [2] was more than 10000 nM throughout.

Regarding `CCOc1cc(OCC)cc(C(=O)NCC2CCN(CC(=O)NC(C)(C)C)CC2)c1` [Compound 377, N-((1-(2-(tert-butylamino)-2-oxoethyl)piperidin-4-yl)methyl)-3,5-diethoxybenzamide], the IC50 was 450 nM in assay [1] and less than 300 nM in assay [2].

`CC(C)(C)NC(=O)CN1CCC(CNC(=O)/C=C/c2cc(Cl)cc(Cl)c2)CC1` [Compound 378, (E)-N-((1-(2-(tert-butylamino)-2-oxoethyl)piperidin-4-yl)methyl)-3-(3,5-dichlorophenyl)acrylamide]: the figures for the IC50 in assay [1] and in assay [2] were 1440 nM and 1600 nM, respectively.

Consider `COc1cc(C(=O)NCC2CCN(CC(=O)NC(C)(C)C)CC2)cc(C(F)(F)F)c1` [Compound 379, N-((1-(2-(tert-buylamino)-2-oxoethyl)piperidin-4-yl)methyl)-3-methoxy-5-(trifluoromethyl)benzamide], for which the IC50 in assay [1] is 130 nM; in assay [2] it was less than 300 nM.

Turning to `CC(C)(C)NC(=O)CN1CCC(CNC(=O)c2cc(Cl)cc(C(F)(F)F)c2)CC1` [Compound 380, N-((1-(2-(tert-butylamino)-2-oxoethyl)piperidin-4-yl)methyl)-3-chloro-5-(trifluoromethyl)benzamide], the IC50 is 110 nM in assay [1] and less than 300 nM in assay [2].

With `CC(C)(C)NC(=O)CN1CCC(CNC(=O)c2cc(Cl)cc(Br)c2)CC1` [Compound 381, 3-bromo-N-((1-(2-(tert-butylamino)-2-oxoethyl)piperidin-4-yl)methyl)-5-chlorobenzamide], the values for the IC50 in assay [1] and in assay [2] were 80 nM and less than 300 nM, respectively.

For `CC(C)(C)NC(=O)CN1CCC(CNC(=O)c2cc(Br)cc(C(F)(F)F)c2)CC1` [Compound 382, 3-bromo-N-((1-(2-(tert-butylamino)-2-oxoethyl)piperidin-4-yl)methyl)-5-(trifluoromethyl)benzamide], the IC50 is 90 nM in assay [1] and less than 300 nM in assay [2].

With `CC(C)(C)NC(=O)CN1CCC(CNC(=O)Cc2cc(C(F)(F)F)cc(C(F)(F)F)c2)CC1` [Compound 383, 2-(3,5-bis(trifluoromethyl)phenyl)-N-((1-(2-(tert-butylamino)-2-oxoethyl)piperidin-4-yl)methyl)acetamide], the IC50 in assay [1] was 1350 nM; in assay [2] it was 1220 nM.

On to `CC(C)(C)NC(=O)CN1CCC(CNC(=O)c2cc(Br)cc(Br)c2)CC1` [Compound 384, 3,5-dibromo-N-((1-(2-(tert-buylamino)-2-oxoethyl)piperidin-4-yl)methyl)benzamide], for which the IC50 is 90 nM in assay [1] and less than 300 nM in assay [2].

In the case of `CC(C)S(=O)(=O)NCCN1CCC(CNC(=O)c2cc(F)cc(Cl)c2)CC1` [Compound 385, 3-chloro-5-fluoro-N-((1-(2-(1-methylethylsulfonamido)ethyl)piperidin-4-yl)methyl)benzamide], the half-inhibitory concentration (IC50) in assay [1] is 800 nM; in assay [2], 580 nM.

As for `CC(C)S(=O)(=O)NCCN1CCC(CNC(=O)c2cccc(Br)c2)CC1` [Compound 386, 3-bromo-N-((1-(2-(1-methylethylsulfonamido)ethyl)piperidin-4-yl)methyl)benzamide], the IC50 in assay [1] came to 490 nM; in assay [2], 870 nM.

Take `O=C(NCC1CCN(CCNS(=O)(=O)C2CC2)CC1)c1ccc(C(F)(F)F)c(F)c1` [Compound 387, N-((1-(2-(cyclopropanesulfonamido)ethyl)piperidin-4-yl)methyl)-3-fluoro-4-(trifluoromethyl)benzamide]: the IC50 was found to be 720 nM in assay [1] and 990 nM in assay [2].

Regarding `O=C(NCC1CCN(CCNS(=O)(=O)C(F)(F)F)CC1)c1cc(Br)cc(Br)c1` [Compound 388, 3,5-dibromo-N-((1-(2-(trifluoromethylsulfonamido)ethyl)piperidin-4-yl)methyl)benzamide], the IC50 in assay [1] was 160 nM; in assay [2] it was less than 300 nM.

Regarding `O=C(NCC1CCN(CCNS(=O)(=O)C(F)(F)F)CC1)c1ccc(OC(F)(F)F)cc1` [Compound 389, 4-(trifluoromethoxy)-N-((1-(2-(trifluoromethylsulfonamido)ethyl)piperidin-4-yl)methyl)benzamide], the IC50 in assay [1] and in assay [2] was more than 10000 nM each time.

`O=C(NCC1CCN(CCNC(=O)C2(C(F)(F)F)CCC2)CC1)c1cc(C(F)(F)F)cc(C(F)(F)F)c1` [Compound 434, 3,5-bis(trifluoromethyl)-N-((1-(2-(1-(trifluoromethyl)cyclobutanecarboxamido)ethyl)piperidin-4-yl)methyl)benzamide]: the IC50 in assay [1] was 60 nM; in assay [2], less than 300 nM.

On to `O=C(NCC1CCN(CCNC(=O)C2(C(F)(F)F)CCC2)CC1)c1cc(F)cc(C(F)(F)F)c1` [Compound 435, 3-fluoro-5-(trifluoromethyl)-N-((1-(2-(1-(trifluoromethyl)cyclobutanecarboxamido)ethyl)piperidin-4-yl)methyl)benzamide], for which the values for the IC50 in assay [1] and in assay [2] were 90 nM and less than 300 nM, respectively.

Source of the values: patent publication US8569344B2, “N-piperidinyl acetamide derivatives as calcium channel blockers” (Zalicus Pharmaceuticals Ltd., priority 2008, dated 2013).
